Assay results published in patent publication US7074831B2, “Compounds, methods for their preparation and use thereof” (Active Biotech AB, priority 2004, dated 2006).
Where two headings read alike, the source gives them in different places.

How the values were obtained:
recombinant human DHODH = recombinant human DHODH (Homo sapiens, UniProt Q02127); experiment: Inhibition assay of DHODH activity (DHO-driven reduction of DCIP); format: biochemical
Experimental: Inhibition of recombinant human DHODH was assayed by the dihydroorotate (DHO) driven reduction of dichloroindophenol (DCIP), (Bruneau et al., 1998). The standard assay mixture contained 0.4 μg/mL recombinant protein, 50 mM Tris pH8, 100 μM decylubiquinone, 1 mM KCN, 200 μM DCIP and 0.1% Triton X-100. Inhibitory compounds were added at 10 different concentrations and the enzyme reaction initiated by the addition of 500 μM DHO. The reaction was allowed to continue for 10 minutes before the reduction of DCIP was measured in a microtiterplate reader as a decrease in absorbance at 650 nm. The IC50 values (concentration of inhibitor required for 50% inhibition) for each compound were calculated from the obtained dose response curves.

[1] = tested on: human T lymphoblast cell line (Jurkat); experiment: Inhibition of T-cell proliferation (3H-TdR incorporation); format: cell-based; settings: Jurkat cells; for IC50: 3 days, read-out: Inhibition of T-cell proliferation in vitro. IC50
Experimental: Inhibition of T cell proliferation was studied in a functional assay. A human T lymphoblast cell line (Jurkat) was cultured in the presence and absence of DHODH inhibiting compounds. Jurkat cells were seeded in microtiterplates at a concentration of 5×10^5/mL in RPMI 1640 growth media supplemented with ultraglutamin, 10% fetal calf serum, 1 mM sodium pyruvat, 10 mM HEPES and 0.1 mg/mL gentamycin. A dilution series of ten different concentrations of inhibitor was added to the wells and the plates were kept in a cell incubator for 3 days. At the beginning of the last 4 hours period, the cultures were pulsed with 10 μl/well 0.1Ci/mmol ^3H-TdR and then harvested on filter papers and counted with a β-counter. The IC50 values for each compound were calculated from the obtained dose response curves. Adding 50 μM uridine to the wells monitored the specificity for the mechanism. This reverses the antiproliferative effect by bypassing the DHODH enzyme using an external source of pyrimidine.
Inhibition of T cell proliferation was studied in a functional assay. Table 1 exemplifies the invention, without limiting the scope thereof. A human T lymphoblast cell line (Jurkat) was cultured in the presence of the compound to be screened. The IC50 value for each compound was calculated from the dose response curve. Adding uridine was used to monitor the specificity of the DHODH mechanism.

[2] = Determination of pharmacokinetic properties in the mouse (cassette dosing); format: in vivo; settings: female, SJL/N Tac, plasma, iv, i.v. administration, nominal dose 1 mg/kg/compound
Experimental: Female mice (SJL/N Tac) were given a single intravenous or oral dose of a mixture of 4 or 6 compounds per cassette (nominal dose: 1 mg/kg/compound). The test items were formulated in physiological saline/5% Cremophor® to a final concentration of each 0.1 mg/mL. Blood samples were collected from vena cava (terminal bleed) into sodium heparinised tubes. The dose formulations and plasma concentrations of each compound were determined by LC-MS/MS. The pharmacokinetic parameters were determined by non-compartmental analysis using WinNonlin Professional (version 4.0.1).
The clearance (CL) and half-life (t1/2) of representative compounds in the mouse following i.v. administration are shown in Table 2. Table 2 exemplifies the invention, without limiting the scope thereof.

Sequence of recombinant human DHODH (Q02127 whole entry): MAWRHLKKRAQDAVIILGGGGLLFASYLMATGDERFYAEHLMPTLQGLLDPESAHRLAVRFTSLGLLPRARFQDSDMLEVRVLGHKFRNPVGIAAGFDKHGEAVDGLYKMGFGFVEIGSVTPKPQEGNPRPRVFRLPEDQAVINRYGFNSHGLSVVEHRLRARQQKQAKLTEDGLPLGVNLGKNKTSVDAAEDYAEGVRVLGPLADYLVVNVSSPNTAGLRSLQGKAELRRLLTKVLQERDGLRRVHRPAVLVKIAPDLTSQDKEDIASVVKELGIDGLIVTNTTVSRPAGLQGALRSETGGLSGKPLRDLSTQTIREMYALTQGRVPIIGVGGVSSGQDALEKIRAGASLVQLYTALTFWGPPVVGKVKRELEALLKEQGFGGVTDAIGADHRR

Row | IC50 ([1]; Homo sapiens, 72 h) | clearance [2] | half-life [2] | SMILES | further results
1 | – | – | – | COc1ccc(OC)c(COc2ccc(O)c(C(=O)O)c2)c1 [5-(2,5-dimethoxy-benzyloxy)-2-hydroxy-benzoic acid] | DHODH inhibition (in words) (recombinant human DHODH): inactive
2 | 40 nM | – | – | CCCNc1ccccc1Sc1ccc(NC(=O)CC)c(C(=O)O)c1 [Compound AA, 2-propionylamino-5-(2-propylamino-phenylsulfanyl)-benzoic acid] | –
3 | – | – | – | CCCN(CCC)c1ccccc1Oc1ccc(NC(=O)CC)c(C(=O)O)c1 [Compound AB, 5-(2-dipropylamino-phenoxy)-2-propionylamino-benzioc acid] | IC50 [1]: 150 nM
4 | 300 nM | – | – | CCC(=O)Nc1ccc(OCc2ccccc2OC(F)(F)F)cc1C(=O)O [Compound AC, 2-propionylamino-5-(2-trifluoromethoxy-benzyloxy)-benzoic acid] | –
5 | 240 nM | – | – | CCC(=O)Nc1ccc(COc2ccccc2OC(F)(F)F)cc1C(=O)O [Compound AD, 2-propionylamino-5-(2-trifluoromethoxy-phenoxymethyl)-benzoic acid] | –
6 | – | – | – | CCC(=O)Nc1ccc(Sc2ccccc2OC(F)(F)F)cc1C(=O)O [Compound AE, 2-propionylamino-5-(2-trifluoromethoxy-phenylsulfanyl)-benzioc acid] | IC50 [1]: 390 nM
7 | – | 16.2 mL/min/kg | 0.29 h | CC(=O)Nc1ccc(CCc2ccccc2)cc1C(=O)O [Compound AF, 2-Acetylamino-5-phenethyl-benzoic acid, reference compound] | –
8 | – | 2 mL/min/kg | 10 h | CCC(=O)Nc1ccc(/C=C/c2ccccc2)cc1C(=O)O [Compound AG, 2-Propionylamino-5-[(E)-styryl]-benzoic acid] | –
9 | – | 0.3 mL/min/kg | 6.6 h | CCC(=O)Nc1ccc(Cc2ccccc2)cc1C(=O)O [Compound AH, 5-Benzyl-2-propionylamino-benzoic acid] | –
10 | 6200 nM | 11.8 mL/min/kg | 0.3 h | COc1ccc(OC)c(COc2ccc(NC(C)=O)c(C(=O)O)c2)c1 [Compound G, 2-acetylamino-5-(2,5-dimethoxy-benzyloxy)-benzoic acid, reference compound] | inhibitory effect on T-cell proliferation (in words) [1]: only a weak inhibitory effect
11 | 12000 nM | – | – | COc1ccc(OC)c(CCc2ccc(NC(C)=O)c(C(=O)O)c2)c1 [Compound H, 2-Acetylamino-5-[2-(2,5dimethoxy-phenyl)-ethyl]-benzoic acid, reference compound] | inhibitory effect on T-cell proliferation (in words) [1]: very weak inhibitory effect
12 | 2900 nM | – | – | CCC(=O)Nc1ccc(CCc2ccccc2C(F)(F)F)cc1C(=O)O [Compound J, 2-propionylamino-5-[2-(2-trifluoromethyl-phenyl)-ethyl]-benzoic acid, reference compound] | inhibitory effect on T-cell proliferation (in words) [1]: weak antiproliferative effect
13 | 790 nM | 1.17 mL/min/kg | 2.2 h | CCC(=O)Nc1ccc(NCc2ccccc2C(F)(F)F)cc1C(=O)O [Compound K, 2-propionylamino-5-(2-trifluoromethyl-benzylamino)-benzoic acid] | –
14 | 780 nM | 0.25 mL/min/kg | 3.1 h | CCC(=O)Nc1ccc(Oc2ccccc2C(F)(F)F)cc1C(=O)O [Compound L, 2-propionylamino-5-(2-trifluoromethyl-phenoxy)-benzoic acid] | –
15 | 330 nM | 1.83 mL/min/kg | 4.9 h | CCC(=O)Nc1ccc(OCc2ccccc2C(F)(F)F)cc1C(=O)O [Compound M, 2-propionylamino-5-(2-trifluoromethyl-benzyloxy)-benzoic acid] | –
16 | 520 nM | 2.33 mL/min/kg | 1.5 h | CCC(=O)Nc1ccc(COc2ccccc2C(F)(F)F)cc1C(=O)O [Compound N, 2-propionylamino-5-(2-trifluoromethyl-phenoxymethyl)-benzoic acid] | –
17 | 250 nM | 0.55 mL/min/kg | 4.6 h | CCC(=O)Nc1ccc(Sc2ccccc2C(F)(F)F)cc1C(=O)O [Compound O, 2-propionylamino-5-(2-trifluoromethyl-phenylsulfanyl)-benzoic acid] | –
18 | 210 nM | – | – | CCC(=O)Nc1ccc(CSc2ccccc2C(F)(F)F)cc1C(=O)O [Compound P, 2-propionylamino-5-(2-trifluoromethyl-phenylsulfanylmethyl)-benzoic acid] | –
19 | – | – | – | CCC(=O)Nc1ccc(/C=C/c2ccccc2C(F)(F)F)cc1C(=O)O [Compound Q] | IC50 [1]: 110 nM
20 | – | – | – | CCC(=O)Nc1ccc(/C=C/c2cccc(C(F)(F)F)c2)cc1C(=O)O [Compound R] | IC50 [1]: 450 nM
21 | 140 nM | – | – | CCC(=O)Nc1ccc(Oc2cc(C(F)(F)F)cc(C(F)(F)F)c2)cc1C(=O)O [Compound S, 5-(3,5-bis-trifluoromethyl-phenoxy)-2-propionylamino-benzoic acid] | –
22 | 240 nM | – | – | CCCNc1ccccc1Oc1ccc(NC(=O)CC)c(C(=O)O)c1 [Compound T, 2-propionylamino-5-(2-propylamino-phenoxy)-benzoic acid] | –
23 | 110 nM | – | – | CCCNc1ccccc1COc1ccc(NC(=O)CC)c(C(=O)O)c1 [Compound U, 2-propionylamino-5-(2-propylamino-benzyloxy)-benzoic acid] | –
